Measurements from patent publication US12275731B2, “Azaindole inhibitors of wild-type and mutant forms of LRRK2” (DANA-FARBER CANCER INSTITUTE, INC., priority 2018, dated 2025).

Assays:
Assay in all cases: KinomeScan profiling
Type in all cases: binding
MAP3K3 = target: T1, MAP3K3 (Homo sapiens, UniProt Q99759); details: MAP3K3, 1 μM; read-out: % control
T1 sequence (Q99759 1-626): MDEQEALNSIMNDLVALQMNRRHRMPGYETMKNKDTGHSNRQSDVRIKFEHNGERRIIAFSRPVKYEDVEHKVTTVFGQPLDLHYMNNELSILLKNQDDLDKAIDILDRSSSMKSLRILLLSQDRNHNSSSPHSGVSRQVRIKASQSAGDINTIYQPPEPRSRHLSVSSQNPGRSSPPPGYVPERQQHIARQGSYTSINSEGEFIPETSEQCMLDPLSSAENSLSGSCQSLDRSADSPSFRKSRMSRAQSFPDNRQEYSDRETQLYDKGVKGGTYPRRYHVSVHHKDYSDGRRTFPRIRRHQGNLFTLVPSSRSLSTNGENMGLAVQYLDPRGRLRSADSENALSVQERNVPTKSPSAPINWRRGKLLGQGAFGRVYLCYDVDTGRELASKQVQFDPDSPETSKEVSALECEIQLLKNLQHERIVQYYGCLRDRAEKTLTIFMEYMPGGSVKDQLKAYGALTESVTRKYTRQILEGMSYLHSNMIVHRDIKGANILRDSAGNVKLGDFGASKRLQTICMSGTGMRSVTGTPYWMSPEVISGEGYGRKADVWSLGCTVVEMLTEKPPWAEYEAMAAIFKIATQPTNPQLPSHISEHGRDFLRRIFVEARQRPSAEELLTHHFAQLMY
How it was run: (§1)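 First, compounds in DMSO are added at 1 μM to each of 468 kinase assays. Next, RLU signals are normalised between positive control (0%) and DMSO (100%). Finally, kinases under 35% are flagged active.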

DCAMKL3 = target: T2, DCAMKL3 (Homo sapiens, UniProt Q9C098); details: DCAMKL3, 1 μM; read-out: % control
T2 sequence (Q9C098 1-648): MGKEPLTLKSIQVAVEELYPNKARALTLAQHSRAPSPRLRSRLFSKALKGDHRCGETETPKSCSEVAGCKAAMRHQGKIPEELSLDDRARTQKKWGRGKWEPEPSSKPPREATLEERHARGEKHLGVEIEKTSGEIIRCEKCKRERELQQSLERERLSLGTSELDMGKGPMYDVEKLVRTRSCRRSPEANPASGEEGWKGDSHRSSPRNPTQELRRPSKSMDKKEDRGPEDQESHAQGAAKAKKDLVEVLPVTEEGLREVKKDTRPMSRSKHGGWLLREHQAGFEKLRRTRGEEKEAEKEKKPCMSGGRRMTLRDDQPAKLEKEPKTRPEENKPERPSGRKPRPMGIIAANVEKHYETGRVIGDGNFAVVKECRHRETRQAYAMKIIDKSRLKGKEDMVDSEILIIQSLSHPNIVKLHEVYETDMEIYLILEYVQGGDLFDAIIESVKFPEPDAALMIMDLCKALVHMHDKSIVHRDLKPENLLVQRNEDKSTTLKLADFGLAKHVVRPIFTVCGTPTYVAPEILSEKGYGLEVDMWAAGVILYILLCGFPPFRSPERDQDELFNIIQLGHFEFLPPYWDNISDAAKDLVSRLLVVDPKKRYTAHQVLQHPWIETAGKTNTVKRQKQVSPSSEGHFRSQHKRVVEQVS
How it was run: as §1

DRAK1 = target: T3, DRAK1 (Homo sapiens, UniProt Q9UEE5); details: DRAK1, 1 μM; read-out: % control
T3 sequence (Q9UEE5 1-414): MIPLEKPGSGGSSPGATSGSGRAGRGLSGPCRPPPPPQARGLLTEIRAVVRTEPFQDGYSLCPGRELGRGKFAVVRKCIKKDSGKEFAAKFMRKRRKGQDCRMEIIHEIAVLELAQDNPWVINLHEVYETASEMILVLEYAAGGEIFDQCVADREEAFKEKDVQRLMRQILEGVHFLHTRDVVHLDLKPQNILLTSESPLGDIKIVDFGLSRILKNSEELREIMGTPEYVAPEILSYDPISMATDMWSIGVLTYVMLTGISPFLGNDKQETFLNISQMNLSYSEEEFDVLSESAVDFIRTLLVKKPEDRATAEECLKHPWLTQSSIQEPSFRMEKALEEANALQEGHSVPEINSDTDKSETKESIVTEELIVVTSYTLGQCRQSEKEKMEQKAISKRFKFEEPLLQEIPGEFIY
How it was run: as §1

ACVR2A = target: T4, ACVR2A (Homo sapiens, UniProt P27037); details: read-out: % control
T4 construct: purchased KinomeScan®
How it was run: as §1

GRK7 = target: T5, GRK7 (Homo sapiens, UniProt Q8WTQ7); details: GRK7, 1 μM; read-out: % control
T5 sequence (Q8WTQ7 1-553): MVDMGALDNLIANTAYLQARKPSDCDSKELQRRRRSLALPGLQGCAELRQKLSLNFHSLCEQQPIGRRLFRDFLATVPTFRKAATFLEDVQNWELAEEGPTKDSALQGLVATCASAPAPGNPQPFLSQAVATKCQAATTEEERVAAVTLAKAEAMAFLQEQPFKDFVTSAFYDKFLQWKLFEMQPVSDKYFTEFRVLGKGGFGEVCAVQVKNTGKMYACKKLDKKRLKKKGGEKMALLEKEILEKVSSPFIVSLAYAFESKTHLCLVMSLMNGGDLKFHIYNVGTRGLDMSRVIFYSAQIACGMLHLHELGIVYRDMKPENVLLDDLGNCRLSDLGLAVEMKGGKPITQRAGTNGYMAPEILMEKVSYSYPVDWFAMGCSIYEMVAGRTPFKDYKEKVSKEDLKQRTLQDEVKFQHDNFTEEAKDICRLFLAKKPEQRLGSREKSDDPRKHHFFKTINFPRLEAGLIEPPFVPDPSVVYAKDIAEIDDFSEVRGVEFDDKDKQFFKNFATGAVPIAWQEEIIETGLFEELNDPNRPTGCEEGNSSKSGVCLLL
How it was run: as §1

TESK1 = TESK1 (Homo sapiens, UniProt Q15569); details: TESK1, 1 μM; read-out: % control
How it was run: as §1

T4 sequence (P27037 20-513): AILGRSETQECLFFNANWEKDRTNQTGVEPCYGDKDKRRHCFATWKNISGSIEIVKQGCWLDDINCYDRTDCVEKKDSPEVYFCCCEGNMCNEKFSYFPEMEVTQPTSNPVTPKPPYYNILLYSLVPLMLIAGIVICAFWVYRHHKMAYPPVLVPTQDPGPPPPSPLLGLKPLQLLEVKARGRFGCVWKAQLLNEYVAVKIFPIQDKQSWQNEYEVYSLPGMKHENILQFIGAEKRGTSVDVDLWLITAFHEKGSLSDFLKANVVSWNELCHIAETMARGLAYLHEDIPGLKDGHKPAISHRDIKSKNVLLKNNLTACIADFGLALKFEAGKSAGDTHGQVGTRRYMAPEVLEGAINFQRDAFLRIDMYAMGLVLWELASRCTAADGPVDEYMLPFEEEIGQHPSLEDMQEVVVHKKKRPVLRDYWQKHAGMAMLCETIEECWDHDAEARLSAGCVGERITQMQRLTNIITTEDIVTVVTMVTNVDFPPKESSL
Sequence of TESK1 (Q15569 whole entry): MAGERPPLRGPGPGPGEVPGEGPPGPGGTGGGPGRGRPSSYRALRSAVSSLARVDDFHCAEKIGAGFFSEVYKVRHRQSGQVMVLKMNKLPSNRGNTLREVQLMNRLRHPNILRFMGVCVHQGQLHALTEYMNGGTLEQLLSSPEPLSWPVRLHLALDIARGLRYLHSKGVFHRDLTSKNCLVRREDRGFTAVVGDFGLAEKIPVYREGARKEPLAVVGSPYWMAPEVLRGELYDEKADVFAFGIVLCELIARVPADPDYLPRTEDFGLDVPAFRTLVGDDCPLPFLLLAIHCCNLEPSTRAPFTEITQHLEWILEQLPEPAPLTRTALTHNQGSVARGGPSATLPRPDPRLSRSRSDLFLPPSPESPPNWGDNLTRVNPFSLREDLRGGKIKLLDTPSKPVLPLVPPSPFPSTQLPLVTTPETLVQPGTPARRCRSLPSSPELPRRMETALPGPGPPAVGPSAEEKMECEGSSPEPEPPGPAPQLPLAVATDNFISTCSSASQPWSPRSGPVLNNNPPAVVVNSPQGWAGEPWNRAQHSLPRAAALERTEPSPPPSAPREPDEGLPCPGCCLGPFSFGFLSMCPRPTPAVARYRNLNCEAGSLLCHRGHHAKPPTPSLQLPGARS

Row | Compound | remaining binding at 1 µM (MAP3K3) | remaining binding at 1 µM (DCAMKL3) | remaining binding at 1 µM (DRAK1) | remaining binding at 1 µM (ACVR2A) | remaining binding at 1 µM (GRK7) | remaining binding at 1 µM (TESK1)
1 | CNc1c(-c2ccc(C(=O)N3CCC(N4CCOCC4)CC3)cc2)cnc2[nH]cc(Cl)c12 [Compound 96, (4-(3-chloro-4-(methylamino)-1H-pyrrolo[2,3-b]pyridin-5-yl)phenyl)(4-morpholinopiperidin-1-yl)methanone] | 51% | 99% | 56% | 97% | 100% | 74%
2 | O=C(c1ccc(-c2cnc3[nH]cc(Cl)c3c2NC2CCCC2)cc1)N1CCC(N2CCOCC2)CC1 [Compound 101, (4-(3-chloro-4-(cyclopentylamino)-1H-pyrrolo[2,3-b]pyridin-5-yl)phenyl)(4-morpholinopiperidin-1-yl)methanone] | 47% | 84% | 100% | 95% | 94% | 99%
3 | CNc1c(-c2cnn([C@H]3CCN(C(C)=O)C[C@@H]3F)c2)cnc2[nH]cc(Cl)c12 [Compound 77, 1-((3S,4S)-4-(4-(3-chloro-4-(methylamino)-1H-pyrrolo[2,3-b]pyridin-5-yl)-1H-pyrazol-1-yl)-3-fluoropiperidin-1-yl)ethan-1-one] | 44% | 95% | 81% | 99% | 100% | 89%
